Assay results from US12496308B2.
Where a name gives a salt, the structure may show the parent alone.

Experiments:
[1] = system: mouse water toxicity model; test: Mouse water toxicity model - survival curves; details: 0.76 mg/kg, versus placebo
Protocol: Mouse Water Toxicity Model—Survival Curves: The in vivo efficacies of the compounds are tested using the mouse water toxicity model, where a mouse is injected with water at 20% of its body weight. […] The resulting euvolemic hyponatremia rapidly leads to CE, making this a practical model to test an inhibitor of the CNS aquaporin, AQP4b.
The ability of mice to survive H2O toxicity is determined in three experiments using 10-12 mice each (16-19 weak old male/female). Deionized water is prepared for injection with either 0.39 mg/kg phenylbenzamide (placebo) or 0.76 mg/kg with test compound.

[2] = system: mouse water toxicity model for cerebral edema; test: Mouse water toxicity model - brain volume by MRI; format: in vivo
Protocol: Mouse Water Toxicity Model—Brain Volume by Magnetic Resonance Imaging (MRI): MRI is used to measure changes in brain volume in response to water shock, using the water toxicity model. As described for the survival and brain water content studies above, mice are injected, IP, with a water bolus alone or water bolus and test compound at 0.76 mg/kg, and changes in brain volume as detected by MRI are monitored. […] High resolution T2-weighted sagittal scans (resolution=0.1 mm×0.1 mm×0.7 mm) of the mouse head are obtained prior to water injection, 5.67 min post water injection, and then every 5.2 minutes until the animal expires from the water loading. Each scan contains twenty-five 0.7 mm contiguous imaging slices of which 14-15 slices contain a portion of the brain. The cross sectional area of the brain in each imaging slice is measured by manual region-of-interest selection using ImageJ. Brain volumes are then calculated for each scan by summing the individual cross sectional brain areas and multiplying by the slice thickness (0.7 mm).

[3] = Stability and pH of aqueous solutions; format: physicochemical; details: for longer term stability of solutions: solutions at RT
Protocol: Water is added and the mixture is stirred or sonicated. Yields 10 mg/ml to 20 mg/ml solutions stable for at least 24 hrs.

[4] = system: middle cerebral artery occlusion (MCAo) model; test: MCAo stroke model - cerebral edema (hemispheric brain volume by MRI)
Protocol: To mimic this injury in mice, an intraluminal monofilament model of middle cerebral artery occlusion (MCAo) is used. Occlusion is achieved by inserting a surgical filament into the external carotid artery (ECA) and threading it forward into the internal carotid artery (ICA) until the tip blocks the origin of the MCA. […] This technique is used to study a temporary occlusion in which the MCA is blocked for one hour. The filament is then removed allowing reperfusion to occur for 24 hours before the animal's brain is imaged using T2-weighted scans in a 9.4T Bruker MRI scanner at the Case Center for Imaging Research (FIG. 7). […] Solid line highlights the region of infarct in the MCAo brain.
Cerebral Edema—Mice are given saline or treated with 2-{[3,5-bis(trifluoromethyl)phenyl]carbamoyl}-4-chlorophenyl phosphate disodium salt (Compound 5) by multi-dosing at 5 mg/kg i.p. every three hours (n=8 per treatment). […] Ipsilateral and contralateral hemispheric volume is measured from the T2-weighted MR images of mice 24 hours post-icus. Relative change in hemispheric volume is calculated as a percent of the difference between ipsilateral brain volume (Vi) and contralateral brain volume (Vc) relative to the contralateral brain volume (Percent Change in Hemispheric Brain Volume=((Vi−Vc)/Vc)×100%.

[5] = system: middle cerebral artery occlusion (MCAo) model; test: MCAo stroke model - neurological outcome; details: mouse, in vivo
Protocol: To mimic this injury in mice, an intraluminal monofilament model of middle cerebral artery occlusion (MCAo) is used. Occlusion is achieved by inserting a surgical filament into the external carotid artery (ECA) and threading it forward into the internal carotid artery (ICA) until the tip blocks the origin of the MCA. […] This technique is used to study a temporary occlusion in which the MCA is blocked for one hour. The filament is then removed allowing reperfusion to occur for 24 hours before the animal's brain is imaged using T2-weighted scans in a 9.4T Bruker MRI scanner at the Case Center for Imaging Research (FIG. 7).
Neurological Outcome—In the same experiment as above, animals are scored for neurological outcome on a simple 5 point scale described in Manley, G. T. et al., Aquaporin-4 Deletion in Mice Reduces Brain Edema After Acute Water Intoxication and Ischemic Stroke, Nature Medicine, 6, 159-163 (2000).

[6] = Solid state stability (hydrolysis to the phenol) at room temperature
[7] = Bioconversion of prodrug salt in mouse plasma in vitro; format: in vitro ADME; details: 20° C.

For `O=C(Nc1cc(C(F)(F)F)cc(C(F)(F)F)c1)c1cc(Cl)ccc1O` [Compound 1], the “improvement of time to 50% survival” value [1] was “roughly 52 min”, the “improvement of percent survival” value ([1]; n=34) was 3.2 fold and the “extent of CE during the period of observation” value ([2]; 0.76 mg/kg) was “reduced”. For the same compound, the “rate of CE development” value ([2]; 0.76 mg/kg IP, fit to single exponential model) was 0.032 min⁻¹, the “reduction of rate of CE development” value ([2]; 0.76 mg/kg, versus no drug) was 2.5 fold and the “Cerebral Edema Rate by MRI” value ([2]; n=14 mice) was 0.032 min⁻¹.

With `O=C(Nc1cc(C(F)(F)F)cc(C(F)(F)F)c1)c1cc(Cl)ccc1OP(=O)([O-])[O-].[Na+].[Na+]` [Compound 5] the “longer term stability of solutions” value [3] was “about 1 % per day”, the “relative change in ipsilateral brain volume” value ([4]; 24 hours after MCAo, 5 mg/kg i.p. every three hours, n=8, ±SEM) was 4.2±1.7% and the “reduction in brain swelling after MCAo” value ([4]; versus saline controls) was 3.2 fold. For the same compound, the “progression to severe paralysis or death” value [5] was “did not progress into a state of severe paralysis or death” and the “hydrolysis in the solid state” value [6] was “about 10 % per day”.

For `O=C(Nc1cc(C(F)(F)F)cc(C(F)(F)F)c1)c1cc(Cl)ccc1OP(=O)(O)O` [Formula I], the pH of solution ([3]; 5 mg/mL in 1% Na2HPO4) was “about 7”, the pH of solution ([3]; 5 mg/mL in 2% Na2HPO4) was 7.4 and the “stability at RT” value ([6]; solid sample kept at RT) was “stable at RT for a week or more”.

In the case of `O=C(Nc1cc(C(F)(F)F)cc(C(F)(F)F)c1)c1cc(Cl)ccc1OP(=O)(O)O` [bis ethanolamine salt], the “Final pH of solutions” value ([3]; in water) is reported as “about 7.5”, the “longer term stability of solutions” value [3] is reported as “about 1 % per day” and the “time sufficient to render prodrug salt undetectable” value [7] is reported as “Less than 5 minutes”. For the same compound, the “hydrolysis in the solid state” value [6] was “about 10 % per day”.

With `O=C(Nc1cc(C(F)(F)F)cc(C(F)(F)F)c1)c1cc(Cl)ccc1OP(=O)(O)O` [mono ethanolamine salt] the hydrolysis ([6]; after 5 days at RT) was “about 10%”.

With `O=C(Nc1cc(C(F)(F)F)cc(C(F)(F)F)c1)c1cc(Cl)ccc1OP(=O)([O-])O.[Na+]` [mono sodium salt] the “longer term stability of solutions” value [3] was “about 1 % per day” and the “hydrolysis in the solid state” value [6] was “about 10 % per day”.
